Source: paper doi:10.1101/2022.12.01.518643 (bioRxiv, 2022)
Where two headings read alike, the source gives them in different places.

Key:
[1] = biological target: DP4 (HLA-DPA1*01:03/DPB1*04:01), DP4.1 (Homo sapiens, UniProt P04440+P20036); assay: Fluorescence polarization competition binding assay, DP4.1; conditions: FP competition; Alexa488 oxytocinase probe 25 nM; DP4.1-Clip 250 nM; HLA-DM 500 nM; 37 °C, 24 h
[2] = biological target: DRB1*15:01 (DR2b) (Homo sapiens, UniProt P01903+P01911); assay: Fluorescence polarization competition binding assay, DR2b; conditions: FP competition; Alexa488 MBP probe 25 nM; DR2b-CLIP 500 nM; HLA-DM 500 nM; 37 °C, 24 h
[3] = biological target: DRB5*01:01 (DR2a) (Homo sapiens, UniProt P01903+Q30154); assay: Fluorescence polarization competition binding assay, DR2a; conditions: FP competition; Alexa488 influenza hemagglutinin probe 25 nM; DR2a-CLIP 250 nM; HLA-DM 500 nM; 37 °C, 24 h
[4] = tested on: relevant alleles (DP4.1, DR2b, DR2a); assay: Fluorescence polarization competition binding assay, relevant alleles; set-up: species or system human; conditions: six representative HLA-DR peptides
[5] = tested on: peptide-expanded T cells from partially HLA-matched donors; assay: IFN-γ ELISpot, single-peptide in vitro expanded T cells with single allele APC; format: cell-based, human; conditions: for T cell recognition, IFN-γ ELISpot: expanded T cells from HLA-matched donors; for minimal activating peptide concentration: dose range 10 – 10^−7 μg/mL
[6] = tested on: single-peptide-expanded T cell lines; assay: Intracellular cytokine staining (ICS) of single-peptide-expanded T cell lines; format: cell-based, human; conditions: single allele APC, 1 μg/mL
[7] = tested on: T cell lines expanded in vitro with OC43 or SARS-CoV-2 peptides; assay: IFN-γ ELISpot cross-reactivity between OC43 peptides and homologs of other coronaviruses; conditions: Table 1
[8] = biological target: soluble DP4 (HLA-DPA1*01:03/DPB1*04:01) (human)
[9] = biological target: soluble recombinant HLA-DR DRB1*15:01 (DR2b) (human); assay: fluorescence polarisation
[10] = biological target: soluble recombinant HLA-DR DRB5*01:01 (DR2a) (human); assay: fluorescence polarisation
[11] = biological target: soluble recombinant HLA-DR DRB1*15:01 (DR2b) (human)
[12] = biological target: soluble recombinant HLA-DR DRB5*01:01 (DR2a) (human)

How did the IC50 [1] turn out when “APYGLYFIHFSYVPTK [Peptide P6, OC43 spike 1140–1155, naturally processed peptide eluted from HLA-DP]” was run?
Its IC50 is ≥ 10000 nM.

Which IC50 [2] does the source give for “DFINGIFAKVKNTKVIK [Peptide P12, OC43 spike 98–114, naturally processed peptide eluted from HLA-DR]” here?
Its IC50 is ≥ 1000 nM.

What about the IC50 [3] of the same substance?
Its IC50 is < 1000 nM.

What about the “binding to DR2a / DR2b allotypes” value [4] of the same substance?
Its value is “bound exclusively to DR2a”.

What does the source list for “EGQQIIFYEGVNFTP [Peptide P8, OC43 hemagglutinin esterase 93–107, naturally processed peptide eluted from HLA-DR]”?
T cell recognition, IFN-γ ELISpot [5]: not recognized; IFN-γ response in ICS [6]: did not produce a response

What does the source list for “GAFFFGSRLELAKVQN [Peptide P2, OC43 nucleoprotein 321–336, naturally processed peptide eluted from HLA-DP]”?
IC50 [1]: ≥ 10000 nM; minimal activating peptide concentration ([5]; expanded cells from donor 61): 10^−6 μg/mL

How did the IC50 [1] turn out when “ITTGYRFTNFEPFT [Peptide P5, OC43 spike 760–773, naturally processed peptide eluted from HLA-DP]” was run?
Its IC50 is < 1000 nM.

What does the source list for “LFYTQVYKNMAVYRS [Peptide P9, OC43 hemagglutinin esterase 128–142, naturally processed peptide eluted from HLA-DR]”?
IC50 [3]: < 1000 nM; minimal activating peptide concentration ([5]; donor 40): 1 µg/mL; binding to DR2a / DR2b allotypes [4]: both allotypes

With “LSDFINGIFAKVKNTK [Peptide P3, OC43 spike 97–111, naturally processed peptide eluted from HLA-DP]” as the substance, how does the “minimal activating peptide concentration” value ([5]; expanded cells from donor 61) read?
The value was 10^−7 μg/mL.

How did the “minimal activating peptide concentration” value ([5]; donor 07) turn out when LTALNAYVSQQLSDS [Peptide P11] was run?
The value was 1 µg/mL.

And the SARS-CoV-2 cross-reactivity [7]?
The SARS-CoV-2 cross-reactivity was “yes”.

Which results are given for “NRGRQFYEFYNDVKPP [Peptide P14, OC43 envelope 62–78, naturally processed peptide eluted from HLA-DP]”?
T cell recognition, IFN-γ ELISpot [5]: not recognized; IFN-γ response in ICS [6]: did not produce a response

For “OC43 envelope protein peptide 62–78 (P14)”, which IC50 [8] is on record?
The IC50 was < 10000 nM.

Which IC50 [9] does the source give for “OC43 hemagglutinin esterase peptide 93–107 (P8)” here?
The IC50 was < 1000 nM.

How did the IC50 [9] turn out when “OC43 hemagglutinin esterase peptide 128–142 (P9)” was run?
Its IC50 is < 1000 nM.

What about the IC50 [10] of the same substance?
The IC50 was < 1000 nM.

For OC43 nucleoprotein peptide 54–68 (P10), which IC50 [11] is on record?
The IC50 was < 1000 nM.

OC43 nucleoprotein peptide 321–336 (P2) was tested. Which IC50 [8] did it give?
The IC50 was > 10000 nM.

How did the IC50 [8] turn out when OC43 spike peptide 97–111 (P3) was run?
Its IC50 is < 10000 nM.

Which IC50 [11] does the source give for OC43 spike peptide 98–114 (P12) here?
The IC50 was > 1000 nM.

What about the IC50 [12] of the same substance?
Its IC50 is < 1000 nM.

OC43 spike peptide 271–286 (P13) was tested. Which IC50 [11] did it give?
The IC50 was < 1000 nM.

For OC43 spike peptide 760–773 (P5), which IC50 [8] is on record?
The IC50 was < 1000 nM.

With OC43 spike peptide 903–917 (P4) as the substance, how does the IC50 [8] read?
The IC50 was < 10000 nM.

OC43 spike peptide 1085–1099 (P11) was tested. Which IC50 [11] did it give?
Its IC50 is < 1000 nM.

With OC43 spike peptide 1140–1155 (P6) as the substance, how does the IC50 [8] read?
The IC50 was > 10000 nM.

OC43 spike peptide 1147–1164 (P7) was tested. Which IC50 [8] did it give?
The IC50 was < 10000 nM.

For “PSGGNVVPYYSWFSG [Peptide P10, OC43 nucleoprotein 54–68, naturally processed peptide eluted from HLA-DR]”, which “minimal activating peptide concentration” value ([5]; donors 18, 22, and 40) is on record?
The value was 10^−5 μg/mL.

And the minimal peptide concentrations ([5]; responding CD4 T cells, discussion)?
The minimal peptide concentrations was “about 10 pg/mL”.

With “SRQYLLAFNQDGIIFN [Peptide P13, OC43 spike 271–286, naturally processed peptide eluted from HLA-DR]” as the substance, how does the IC50 [2] read?
The IC50 was < 1000 nM.

What about the “T cell recognition, IFN-γ ELISpot” value [5] of the same substance?
Its value is “not recognized”.

What about the “IFN-γ response in ICS” value [6] of the same substance?
Its value is “did not produce a response”.

How did the IC50 [1] turn out when “YLAISNELLLTVPTK [Peptide P1, OC43 hemagglutinin esterase 259–273, naturally processed peptide eluted from HLA-DP]” was run?
Its IC50 is < 1000 nM.
